The results in this text go back to patent US9156889B2, “Drug transporter permeating blood-brain barrier, peptide and use thereof” (priority 2011, dated 2015).

Series [1] has as its system poliovirus (Mahoney strain). It counts as binding.
Series [2] relates to poliovirus (Mahoney strain). Type of series: binding. The source holds these as a separate data set.
The test system of series [3] is poliovirus (Mahoney strain). Type of series: binding. The source holds these as a separate data set.
Series [4] concerns Mouse brain capillary endotherial cells (MBEC) 4.
Series [5] has the same test system. The source holds these as a separate data set.

Where no end group is shown, it is not given here.

Regarding “GST-mTfR1 (TQFPPSQSS; not fully specified (N-terminus))”, the “binding to poliovirus: band in western blotting after purification” value in series [1] was “band was similarly detected”.
For “SEQ ID NO: 6 (TQFPPSRSS; listed as Homo sapiens)”, in series [2], the “binding to poliovirus (western blotting after purification)” value is “directly involved with the binding to poliovirus”.
The same measure, in the same setting: the value for “SEQ ID NO: 7 (TQFPPVASS; listed as Homo sapiens)” was “directly involved with the binding to poliovirus”.
Still for that read-out and setting: the result for “SEQ ID NO: 8 (TQFPPVESS; listed as Mus musculus)” reads “directly involved with the binding to poliovirus”.
Turning to Strep-mTfR1, the “binding to poliovirus: bands in western blotting after purification” value in series [3] is reported as “bands were detected”. For the same substance, the “binding to poliovirus: band in western blotting after purification” value in series [1] is listed as “band was detected”.
For dextran, the “PS value (permeation rate, permeation activity)” value in series [4] was 0.20.
Turning to fluorescence-labeled transferrin, the PS value in series [5] worked out at 0.33.
For transferrin, the “effect on the permeation of poliovirus through the blood-brain barrier” value in series [4] is recorded as “inhibits the permeation of poliovirus”.
